Test results from US10072035B2, “Phenanthroline phosphonic acid derivative and preparation method therefor and application thereof” (Guangzhou Beryl Therapeutics, Inc, priority 2014, dated 2018).
Values belong to the compound of their own block, whether it stands above or below them.

Assays:
[1] = biological target: T1, human P4H enzyme (Homo sapiens, UniProt P13674); assay: P4H enzymatic activity, coupled succinyl CoA synthase / MLG phosphate assay; format: biochemical; conditions: 50 nM P4H, 100 uM 2-oxoglutarate, 45 min at 25° C., n=2, FIG. 1
T1 construct: made in house; host or cells: E. coli Origami2(DE3)
Excerpt: Human recombinant P4H was expressed in E. coli. Briefly, DNA encoding the signal sequence of P4H was cloned into pET28_N-His_TEV, the resulting plasmid pET28_N-His_TEV_P4HA1/PDI was transferred to E. coli Origami2(DE3) to co-expressed. The enzyme obtained was purified with MonoQ ion-exchange column, TEV digested and confirmed by MS, passed through Histrap HP column, finally purified with Hiload16/60 superdex 200 column.
The measurement of the enzymatic activity of purified P4H zymoprotein and the assay of the influence of the compound to the enzymatic activity were performed at the following coupling enzymatic reaction system: 100 mM Tris (pH7.0), 0.1 mM (NH4)2Fe(SO4)2, 0.1 mM ascorbic acid, 0.2 mM CoA, 0.2 mM ATP, 0.5 uM succinyl CoA synthase, 100 uM 2-oxoglutarate, 100 uM (Pro-Pro-Gly)10peptide, 50 nM P4H enzyme, 50 ul total. After 45 min reaction at 25° C., 10 ul MLG R1 was added and reacted for 10 min, 10 ul MLG R2 was added and reacted for 20 min. P4H catalyst 2-oxoglutaric acid and polypeptide with coenzyme and suitable enzyme reaction environment to give product succinic acid. The product succinic acid then produced succinyl CoA and phosphoric acid with the action of succinyl CoA synthase. The level of generated phosphoric acid could be measured by MLG, which reflects the level of P4H. The generated green product (MG+)(H2PMo12O40) was measured at OD 630 nm. […]

[2] = Concentration of compound 16c and 9c in liver after PO dosing of compound 27; format: in vivo, Wistar rats; conditions: rat; for concentration at 0.25 h / concentration at 0.75 h / concentration at 8 h / concentration at 24 h: both sexes, Wistar, liver; for concentration at 0.25 h: 0.25 h after oral administration of compound 27 (39 mg/kg); for concentration at 0.75 h: 0.75 h after oral administration of compound 27 (39 mg/kg); for concentration at 8 h: 8 h after oral administration of compound 27 (39 mg/kg); for concentration at 24 h: 24 h after oral administration of compound 27 (39 mg/kg); for Conversion of prodrug in vivo: after PO dosing of compound 27
Procedure: 16 Wistar rats (200±20 g) were divided into 4 groups randomly, female and male each half in each group, ate and drank freely before the experiment. After PO dosing of compound 27 (39 mg·kg^−1), rats were sacrificed at each time point 15 min, 45 min, 8 h, 24 h. Liver samples were collected, washed off blood and contents with saline, cut into small pieces, and stirred evenly. 1 g was weighed. 1 mL Methanol/water was added. After homogenated, additional 1 mL methanol/water was added. The mixture was sonicated for 15 seconds, centrifuged (4500 rpm) for 10 minutes. The upper clear solution was tested using LC-MS/MS method to give the concentration of compound 16c and 9c in liver at different time points after administration (table 2).

[3] = In-vivo pharmacokinetics in plasma of rats; design: species or system Wistar rats
Procedure: Wistar rats (200±20 g) were divided into 2 groups, 6 each, half female and half male in each group, ate and drank freely. The first group was given compound 16c 3 mg·kg^−1 caudal-intravenously. The second group was orally administered disodium salt of compound 27 (39 mg·kg^−1). Blood (0.3 mL) was collected from retroorbital vein at time point 0 h, 0.08 h, 0.17 h, 0.33 h, 0.5 h, 0.75 h, 1 h, 1.5 h, 2 h, 3 h, 5 h, 7 h, placed into cold heparinized Eppendorf tubes. The samples were centrifuged at 4° C. (15000 rpm) for 5 min. Transfer 100 μL plasma sample to −80° C. freezer for test.
Quantitative LC-MS/MS analysis methods of compound 9c and prodrug 16c in plasma were set up, using diazepam and mildronate as internal standard, respectively. (Prodrug 27 was not detected under experimental condition from plasma) the plasma sample was tested and analyzed. (result see in Table 1 and FIG. 2)
Oral Bioavailability was calculated according to compound 16c in plasma. Area under concentration-time curve (AUC) of PO dosing was divided by AUC of iv dosing of same amount of drugs, expressed as absorption percentage: Bioavailability (F)=AUCpo·Miv/AUCiv·Mpo×100%. Wherein, Miv means the molar concentration of drugs by iv dosing, and Mpo means the molar concentration of drugs by PO dosing. The AUC0-t of compound 16c in plasma

[4] = test system: hepatic stellate cells; conditions: cited from earlier work
[5] = cited from earlier work
[6] = test system: myocardial infarction; conditions: in vivo; cited from earlier work
[7] = test system: BDL rats having liver fibrosis; assay: Bile Duct Ligation induced liver fibrosis model in rats; format: in vivo, Wistar rats
Excerpt: This experiment used Bile Duct Ligation to induce liver fibrosis model in rats. Treatment of BDL rats with PO dosing prodrug 27 was studied.
Briefly, Wistar rats (200±20 g) were divided into 3 groups, half female and half male in each group:
SHAM group: 6 rats were anaesthetized, the abdominal skin was shaved and sterilized regularly, the common bile duct was exposed by an upper abdominal midline incision with sterile operation. Muscle and skins were sutured separately.
liver fibrosis MODEL group: 12 rats were anaesthetized, the abdominal skin was shaved and sterilized regularly, the common bile duct was exposed and ligated by an upper abdominal midline incision with sterile operation. Muscle and skins were sutured separately.
Dosing group: 12 rats were anaesthetized, the abdominal skin was shaved and sterilized regularly, the common bile duct was exposed and ligated by an upper abdominal midline incision with sterile operation. Muscle and skins were sutured separately. After operation, disodium salt of compound 27 (30 mg/kg) was dissolved in water and dosed orally to the rats once per day test indexes:
After 2 weeks, measure the ALT and AST of serium and liver homogenate
After 2 weeks, rats were sacrificed, and liver performed HE staining and Masson staining.

[8] = both sexes, rat, compound 16c in plasma after compound 16c IV 3 mg/kg, Wistar rats

T1 sequence (P13674 18-534): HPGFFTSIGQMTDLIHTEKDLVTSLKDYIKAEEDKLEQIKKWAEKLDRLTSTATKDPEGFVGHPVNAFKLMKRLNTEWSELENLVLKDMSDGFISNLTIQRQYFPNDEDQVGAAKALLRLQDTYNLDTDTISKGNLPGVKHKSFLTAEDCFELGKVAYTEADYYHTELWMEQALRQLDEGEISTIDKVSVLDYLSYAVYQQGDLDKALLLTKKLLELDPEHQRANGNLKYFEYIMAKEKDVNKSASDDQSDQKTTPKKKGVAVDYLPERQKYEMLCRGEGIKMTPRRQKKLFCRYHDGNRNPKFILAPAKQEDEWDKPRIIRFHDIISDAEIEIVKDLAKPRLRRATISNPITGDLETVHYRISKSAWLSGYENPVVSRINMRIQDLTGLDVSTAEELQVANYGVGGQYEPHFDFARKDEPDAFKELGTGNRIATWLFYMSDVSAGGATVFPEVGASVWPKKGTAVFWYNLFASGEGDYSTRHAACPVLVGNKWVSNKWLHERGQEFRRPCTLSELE
T1 sequence (P07237 18-508 partner): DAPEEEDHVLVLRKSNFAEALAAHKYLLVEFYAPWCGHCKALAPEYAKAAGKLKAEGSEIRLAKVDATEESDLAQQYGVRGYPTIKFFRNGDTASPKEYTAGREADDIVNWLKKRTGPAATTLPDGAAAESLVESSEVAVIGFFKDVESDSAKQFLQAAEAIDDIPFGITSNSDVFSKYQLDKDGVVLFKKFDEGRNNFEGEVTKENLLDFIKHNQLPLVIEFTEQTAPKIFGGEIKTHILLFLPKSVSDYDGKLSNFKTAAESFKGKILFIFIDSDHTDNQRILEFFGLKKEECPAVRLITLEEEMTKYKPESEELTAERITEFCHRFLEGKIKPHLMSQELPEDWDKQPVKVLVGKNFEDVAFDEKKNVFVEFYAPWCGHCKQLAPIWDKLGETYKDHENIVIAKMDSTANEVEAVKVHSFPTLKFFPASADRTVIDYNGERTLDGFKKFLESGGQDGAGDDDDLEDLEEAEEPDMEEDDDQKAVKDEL

IC50 [1]: 8.1 µM
concentration at 0.25 h [2]: 16.1 ng/g
concentration at 0.75 h [2]: 64.2 ng/g
concentration at 8 h [2]: 44.7 ng/g
concentration at 24 h [2]: 3.55 ng/g
Compound: O=P(O)(O)c1cnc2c(ccc3c(O)ccnc32)c1 [Compound 9c, 7-hydroxy-1,10-phenanthrolin-3-yl phosphonic acid]

AUC0-t of compound 16c in plasma ([3]; after compound 16c 3 mg/kg intravenously): 2060 µg·h/L
AUC(0-inf) [3, 8]: 2140 ng·h/mL
AUC(0-t) [3, 8]: 2060 ng·h/mL
Cmax ([3]; both sexes, rat, compound 16c in plasma after compound 16c IV 3 mg/kg, Wistar rats, read-out: Cmax (peak concentration in plasma)): 1620 ng/mL
half-life ([3]; both sexes, rat, compound 16c in plasma after compound 16c IV 3 mg/kg, Wistar rats, read-out: t1/2 (half life of drug in plasma) (converted)): 90 min
concentration at 0.25 h [2]: 522 ng/g
concentration at 0.75 h [2]: 662 ng/g
concentration at 8 h [2]: 584 ng/g
concentration at 24 h [2]: 50.9 ng/g
Conversion of prodrug in vivo [2]: converted to compound 9c in liver
Compound: O=P1(c2cnc3c(ccc4c(O)ccnc43)c2)OCC[C@@H](c2cccc(Cl)c2)O1 (stereo partly drawn) [Compound 16c, (4S)-4-(3-chlorophenyl)-2-(7-hydroxy-1,10-phenanthrolin-3-yl)-1,3,2-dioxaphosphinan-2-one]

Detection of prodrug 27 in plasma ([3]; LC-MS/MS, after PO dosing 39 mg/kg): not detected
Conversion of prodrug in vivo [2]: converted to compound 16c in rat
Compound: O=c1ccn(COP(=O)(O)O)c2c1ccc1cc(P3(=O)OCC[C@@H](c4cccc(Cl)c4)O3)cnc12 (stereo partly drawn) [Compound 27, (3-(4S-4-(3-chlorophenyl)-1,3,2-dioxaphosphinan-2-one-2-yl)-1,10-phenanthrolin-7-one)-10(7H)-methyl phosphoric acid]
ALT in serum ([7]; BDL rats, 30 mg/kg PO once per day, 2 weeks, MODEL 144.4 ± 15.94, SHAM 67.1 ± 5.45): 74.4 ± 17.82 IU/L
AST in serum ([7]; BDL rats, 30 mg/kg PO once per day, 2 weeks, MODEL 207.2 ± 30.96, SHAM 67.7 ± 4.67): 87.2 ± 12.51 IU/L
H&E staining of rat liver ([7]; BDL, PO 30 mpk, 2 weeks, FIG. 5): varies the pathological changes of hepatic tissue
ALT and AST of the serium and liver homogenate versus model group ([7]; after 14 days of administration, P<0.01): decreased significantly
ALT in liver ([7]; liver homogenate, BDL rats, 30 mg/kg PO once per day, 2 weeks, MODEL 136.8 ± 16.48): 76.4 ± 11.35 IU/L
AST in liver ([7]; liver homogenate, BDL rats, 30 mg/kg PO once per day, 2 weeks, MODEL 198.75 ± 27.70): 91.42 ± 8.79 IU/L

The remaining lines, values behind:

Compound: COCCNC(=O)c1ccnc(C(=O)NCCOC)c1 [HOE077]
activation of hepatic stellate cells [4]: inhibits
expression of procollagen mRNA [4]: inhibits
hepatic stellate cells proliferation [4]: reduces
synthesis of total protein of cell [4]: no effect
side effects in clinical trials [5]: severe side effects (cataract)

Compound: O=C(O)c1c[nH]c2c(ccc3cccnc32)c1=O [FG-041, 1,4-dihydrophenanthrol-4-one-3-carboxylic acid]
myocardial infarction in animal experiment [6]: prevent myocardial infarction
